Results from patent US20060069132A1, “Azolecarboxamide herbicides” (priority 2004, published 2006).
Read-outs that look alike come from different tables or passages of the source.

Tests used:
giant foxtail = test: Test A pre-/postemergence herbicide test; assay type: in vivo, Setaria faberi; details: for pest or weed control at 500 g/ha / pest or weed control at 2000 g/ha: Setaria faberi, 240 h
How it was run: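 Visual injury rating on a 0–100 scale (0 no effect, 100 complete control) versus untreated controls, about ten days after treatment in greenhouse. Pre: directed soil spray onto seeded sandy loam. Post: spray to runoff on plants 2–10 cm tall at one- to two-leaf stage.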

lambsquarters = test: Test B pre-/postemergence herbicide test; assay type: in vivo, Chenopodium album; details: for pest or weed control at 125 g/ha / pest or weed control at 500 g/ha: Chenopodium album, 336 h
How it was run: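 Plants compared with untreated controls 13–15 days post-treatment and given a visual 0–100 injury score. Applications: preemergence to seeds; postemergence at 1- to 4-leaf (2–18 cm); paddy species flooded, 2-leaf stage. Vehicle non-phytotoxic, surfactant included.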

barnyardgrass = test: Test B flooded paddy test; assay type: in vivo, Echinochloa crus-galli; details: 1000 g ai/ha, visual rating, scale 0 to 100 (0 no effect, 100 complete control), 13 to 15 days
How it was run: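 Formulated test chemicals went onto postemergence plants measuring 2 to 18 cm, at one to four leaves. For the paddy assay, species had reached two leaves. Scoring took place 13–15 days later by eye, relative to untreated plants, using 0 for no effect up to 100 for full control.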

Surinam grass = test: Test C pre-/postemergence herbicide test; assay type: in vivo, Urochloa decumbens
How it was run: (§1)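 Pre- and postemergence application, solvent/surfactant formulation; post at 1- to 4-leaf stage (2–18 cm). Greenhouse 12–14 d. Visual rating vs controls, 0 = no effect, 100 = complete control.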

goosegrass = test: Test C pre-/postemergence herbicide test; assay type: in vivo, Eleusine indica
How it was run: as §1

pigweed = test: Test C pre-/postemergence herbicide test; assay type: in vivo, Amaranthus retroflexus
How it was run: as §1

soybean = test: Test C pre-/postemergence herbicide test; assay type: in vivo, Glycine max
How it was run: as §1

rice = test: Test C flooded paddy test; assay type: in vivo, Oryza sativa
How it was run: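 Injury scored visually against controls on a 0 (no effect) to 100 (complete control) scale, 12 to 14 days after treatment in greenhouse. Flooded paddy plants treated at 2-leaf stage; postemergence plants at 1- to 4-leaf stage, 2 to 18 cm tall.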

[1] = Postemergence, 500 g ai/ha, 0 to 100 scale, 0 no effect, 100 complete control
[2] = Postemergence, 2000 g ai/ha, 0 to 100 scale, 0 no effect, 100 complete control
[3] = Preemergence, 500 g ai/ha, visual rating, 0 to 100 scale (0 no effect, 100 complete control)
[4] = postemergence, 125 g ai/ha, visual rating, scale 0 (no effect) to 100 (complete control)
[5] = preemergence, 125 g ai/ha, 0 to 100 scale, 0 is no effect, 100 is complete control
[6] = 31 g ai/ha, preemergence, scale 0 to 100
[7] = 125 g ai/ha, scale 0 (no effect) to 100 (complete control), visual, 12 to 14 days, preemergence
[8] = 250 g ai/ha, scale 0 to 100 (0 no effect, 100 complete control), visual, 12 to 14 days, preemergence
[9] = 62 g ai/ha, scale 0 to 100 (0 no effect, 100 complete control)
[10] = 250 g ai/ha, scale of 0 to 100, 0 is no effect, 100 is complete control
[11] = 500 g ai/ha, visual rating after 12 to 14 days, scale 0 to 100 (0 no effect, 100 complete control)

SMILES: CCc1nn(C(C)(C)C)cc1C(=O)Nc1cc(C(=O)N(C)C)ccc1F [Compound 222, N-[5-[(dimethylamino)carbonyl]-2-fluorophenyl]-1-(1,1-dimethylethyl)-3-ethyl-1H-pyrazole-4-carboxamide]
- pest or weed control at 500 g/ha (giant foxtail; post-emergence, Postemergence, 500 g ai/ha, 0 to 100 scale, 0 no effect, 100 complete control, read-out: Foxtail, Giant plant response rating): 65%
- pest or weed control at 2000 g/ha (giant foxtail; post-emergence, Postemergence, 2000 g ai/ha, 0 to 100 scale, 0 no effect, 100 complete control, read-out: Plant response rating, Foxtail, Giant): 85%
- pest or weed control at 2000 g/ha (giant foxtail; pre-emergence, Preemergence, 2000 g ai/ha, visual rating, 0 to 100 scale (0 no effect, 100 complete control), read-out: Foxtail, Giant plant response rating): 100%
- pest or weed control at 500 g/ha (giant foxtail; pre-emergence, preemergence, 500 g ai/ha, visual injury, 0 to 100 scale (0 no effect, 100 complete control), read-out: Foxtail, Giant plant response rating): 95%
- pest or weed control at 125 g/ha (lambsquarters; post-emergence, postemergence, 125 g ai/ha, visual rating, scale 0 (no effect) to 100 (complete control), read-out: Lambsquarters plant response rating): 50%
- pest or weed control at 500 g/ha (lambsquarters; post-emergence, postemergence, 500 g ai/ha, visual rating, scale 0 (no effect) to 100 (complete control), read-out: Lambsquarters plant response rating): 70%
- pest or weed control at 125 g/ha (lambsquarters; pre-emergence, 125 g ai/ha, 0 = no effect, 100 = complete control, read-out: Lambsquarters plant response rating (0 to 100 scale)): 100%
- pest or weed control at 500 g/ha (lambsquarters; pre-emergence, 500 g ai/ha, visual rating, 0 = no effect, 100 = complete control, read-out: Plant response rating, Lambsquarters): 100%
- pest or weed control at 1000 g/ha (barnyardgrass; Echinochloa crus-galli, 336 h, read-out: Barnyardgrass plant response rating): 90%
- pest or weed control at 62 g/ha (Surinam grass; Urochloa decumbens, pre-emergence, 312 h, 62 g ai/ha, preemergence, scale 0 to 100, read-out: Plant response rating, Surinam Grass): 80%
- pest or weed control at 250 g/ha (Surinam grass; Urochloa decumbens, pre-emergence, 312 h, 250 g ai/ha, scale 0-100, read-out: Plant response rating, Surinam Grass): 100%
- pest or weed control at 500 g/ha (Surinam grass; Urochloa decumbens, pre-emergence, 312 h, 500 g ai/ha, scale 0 to 100 (0 no effect, 100 complete control), visual, 12 to 14 days, read-out: Plant response rating, Surinam Grass): 100%
- pest or weed control at 62 g/ha (goosegrass; Eleusine indica, pre-emergence, 312 h, 62 g ai/ha, preemergence, scale 0 to 100, read-out: Plant response rating, Goosegrass): 80%
- pest or weed control at 125 g/ha (goosegrass; Eleusine indica, pre-emergence, 312 h, 125 g ai/ha, scale 0 (no effect) to 100 (complete control), visual, 12 to 14 days, read-out: Plant response rating, Goosegrass): 100%
- pest or weed control at 250 g/ha (goosegrass; Eleusine indica, pre-emergence, 312 h, 250 g ai/ha, scale 0-100, read-out: Plant response rating, Goosegrass): 100%
- pest or weed control at 500 g/ha (goosegrass; Eleusine indica, pre-emergence, 312 h, 500 g ai/ha, scale 0 to 100 (0 no effect, 100 complete control), visual, 12 to 14 days, read-out: Plant response rating, Goosegrass): 100%
- pest or weed control at 62 g/ha (pigweed; Amaranthus retroflexus, pre-emergence, 62 g ai/ha, preemergence, scale 0 to 100, read-out: Plant response rating, Pigweed): 100%
- pest or weed control at 125 g/ha (pigweed; Amaranthus retroflexus, pre-emergence, 125 g ai/ha, scale 0 (no effect) to 100 (complete control), visual, 12 to 14 days, read-out: Plant response rating, Pigweed): 100%
- pest or weed control at 250 g/ha (pigweed; Amaranthus retroflexus, pre-emergence, 250 g ai/ha, scale 0-100, read-out: Plant response rating, Pigweed): 100%
- pest or weed control at 500 g/ha (pigweed; Amaranthus retroflexus, pre-emergence, 500 g ai/ha, scale 0 to 100 (0 no effect, 100 complete control), visual, 12 to 14 days, read-out: Plant response rating, Pigweed): 100%
- plant injury at 62 g/ha (soybean; Glycine max, pre-emergence, 62 g ai/ha, preemergence, scale 0 to 100, read-out: Plant response rating, Soybean): 40%
- plant injury at 250 g/ha (soybean; Glycine max, pre-emergence, 250 g ai/ha, scale 0-100, read-out: Plant response rating, Soybean): 100%
- plant injury at 500 g/ha (soybean; Glycine max, pre-emergence, 500 g ai/ha, scale 0 to 100 (0 no effect, 100 complete control), visual, 12 to 14 days, read-out: Plant response rating, Soybean): 100%
- plant injury at 62 g/ha (rice; Oryza sativa, 62 g ai/ha, scale 0 to 100 (0 no effect, 100 complete control), read-out: Rice plant response rating): 30%
- plant injury at 125 g/ha (rice; Oryza sativa, 125 g ai/ha, scale 0 to 100 (0 no effect, 100 complete control), read-out: Rice plant response rating): 70%
- plant injury at 250 g/ha (rice; Oryza sativa, 250 g ai/ha, scale of 0 to 100, 0 is no effect, 100 is complete control, read-out: Rice plant response rating): 85%
- plant injury at 500 g/ha (rice; Oryza sativa, 500 g ai/ha, visual rating after 12 to 14 days, scale 0 to 100 (0 no effect, 100 complete control), read-out: Plant response rating, Rice): 85%

SMILES: CCn1nc(C(C)(C)C)cc1C(=O)Nc1cccc(C(=O)NCC2CC2)c1 [Compound 62]
- Plant response rating, Foxtail, Giant (giant foxtail; [1]): 55
- Plant response rating, Foxtail, Giant (giant foxtail; [2]): 85
- Foxtail, Giant plant response rating (giant foxtail; [3]): 75
- Foxtail, Giant plant response rating (giant foxtail; Preemergence, 2000 g ai/ha, 0 to 100 scale, 0 no effect, 100 complete control): 100
- Plant response rating, Lambsquarters (lambsquarters; Postemergence, 500 g ai/ha, visual rating after 13 to 15 days, scale 0 (no effect) to 100 (complete control)): 90
- Lambsquarters plant response rating (lambsquarters; [4]): 80
- Plant response rating, Lambsquarters (lambsquarters; [5]): 100
- Barnyardgrass plant response rating (barnyardgrass): 70
- Plant response rating, Surinam Grass (Surinam grass; [6]): 0
- Plant response rating (0 = no effect, 100 = complete control), Surinam Grass (Surinam grass; 62 g ai/ha, preemergence): 5
- Plant response rating, Surinam Grass (Surinam grass; [7]): 10
- Plant response rating, Surinam Grass (Surinam grass; [8]): 50
- Plant response rating, Goosegrass (goosegrass; [6]): 0
- Plant response rating (0 = no effect, 100 = complete control), Goosegrass (goosegrass; 62 g ai/ha, preemergence): 10
- Plant response rating, Goosegrass (goosegrass; [7]): 70
- Plant response rating, Goosegrass (goosegrass; [8]): 85
- Plant response rating, Pigweed (pigweed; [6]): 90
- Plant response rating (0 = no effect, 100 = complete control), Pigweed (pigweed; 62 g ai/ha, preemergence): 95
- Plant response rating, Pigweed (pigweed; [7]): 95
- Plant response rating, Pigweed (pigweed; [8]): 95
- Plant response rating, Soybean (soybean; [6]): 0
- Plant response rating (0 = no effect, 100 = complete control), Soybean (soybean; 62 g ai/ha, preemergence): 0
- Plant response rating, Soybean (soybean; [7]): 0
- Plant response rating, Soybean (soybean; [8]): 30
- Rice plant response rating (rice; [9]): 15
- Rice plant response rating (rice; 125 g ai/ha, scale of 0 to 100, 0 is no effect, 100 is complete control): 25
- Rice plant response rating (rice; [10]): 45
- Plant response rating, Rice (rice; [11]): 65

SMILES: CC(=O)c1cccc(NC(=O)c2cc(C(C)(C)C)nn2CCF)c1 [Compound 128]
- Foxtail, Giant plant response rating (giant foxtail; [1]): 45
- Plant response rating, Foxtail, Giant (giant foxtail; [2]): 60
- Foxtail, Giant plant response rating (giant foxtail; [3]): 15
- Foxtail, Giant plant response rating (giant foxtail; Preemergence, 2000 g ai/ha, visual rating, 0 to 100 scale (0 no effect, 100 complete control)): 65
- Plant response rating, Lambsquarters (lambsquarters; 500 g ai/ha, visual rating 0-100, 0 no effect, 100 complete control, preemergence): 70
- Lambsquarters plant response rating (lambsquarters; [4]): 0
- Lambsquarters plant response rating (lambsquarters; postemergence, 500 g ai/ha, visual rating, scale 0 (no effect) to 100 (complete control)): 60
- Plant response rating, Lambsquarters (lambsquarters; [5]): 0
- Barnyardgrass plant response rating (barnyardgrass): 70
- Plant response rating (0 = no effect, 100 = complete control), Surinam Grass (Surinam grass; 62 g ai/ha, preemergence): 30
- Plant response rating, Surinam Grass (Surinam grass; [7]): 60
- Plant response rating (0 = no effect, 100 = complete control), Goosegrass (goosegrass; 62 g ai/ha, preemergence): 80
- Plant response rating, Goosegrass (goosegrass; [7]): 90
- Plant response rating, Pigweed (pigweed; [7]): 60
- Plant response rating (0 = no effect, 100 = complete control), Soybean (soybean; 62 g ai/ha, preemergence): 20
- Plant response rating, Soybean (soybean; [7]): 20
- Rice plant response rating (rice; [9]): 25
- Rice plant response rating (rice; 125 g ai/ha, scale 0 to 100 (0 no effect, 100 complete control)): 40
- Rice plant response rating (rice; [10]): 70
- Plant response rating, Rice (rice; [11]): 70
